Results on eight compounds are retold here after patent US12030868B2, “Prodrugs of CGRP antagonists” (Pfizer Ireland Pharmaceuticals, priority 2018, dated 2024).

Counter-ions that a name gives are not always drawn.

The nature of data set [1]: Caco-2 permeability assay. The class given is in vitro ADME, human. Conditions: human, Caco-2 monolayer, donor 10 μM, 37° C., pH 7.4; for Papp A→B at 90 min, 10 μM: apical to basolateral; for Papp B→A at 90 min, 10 μM: basolateral to apical. The procedure: (§1) Caco-2 Permeability Assay
(§2) The Caco-2 cells are cultured to confluency, trypsinized and seeded onto a filter transwell insert at a density of ^˜32,000 cells/well in DMEM cell culture medium. Cells are grown in a humidified atmosphere of 5% CO2 at 37° C. Following an overnight attachment period (24 h after seeding), the cell medium is replaced with fresh medium in both the apical and basolateral compartments every other day. The cell monolayers are used for transport studies 21 days post seeding after measuring the TEER values ([…]). The apical sides and basolateral sides are washed consecutively with HBSS 2.5% (v/v), HEPES (pH 7.4) or HBSS 2.5% (v/v), HEPES 10% (v/v), and Fetal Bovine Serum (pH 7.4) at 37° C. in an incubator under an atmosphere of 5% CO2.
(§3) Donor working solution is prepared by dilution of DMSO stock of test article or positive control with transport media to 10 μM.
(§4) For A→B directional transport, the donor working solution (with test article or positive control, with or without Pgp inhibitor) is added to the apical (A) compartment and the transport media as receiver working solution is added to the basolateral (B) compartment. For B→A directional transport, the donor working solution (with positive control or test article, with or without Pgp inhibitor) is added to the basolateral (B) compartment and transport media as receiver working solution is added to the apical (A) compartment.
(§5) The cells are incubated in a humidified atmosphere of 5% CO2 at 37° C. for 90 minutes.
(§6) At the end of the incubation, samples are taken from both donor and receiver compartments and transferred into 96-well assay plates containing internal standard solution (IS) in each well. After centrifugation, the supernatant solutions are transferred to clean 96 well plates and analyzed by LC-MS/MS. The MS detection is performed using a Sciex API 4000 instrument. Each compound is analyzed by reversed phase HPLC.
(§7) The parameters Papp (apparent permeability) and efflux ratio are calculated as follows: Papp=(dQ/dt)×(1/C0)×(1/A) Efflux ratio=Papp[B→A]/Papp[A→B] • where dQ/dt is the permeability rate, C0 is the initial concentration in the donor compartment, and A is the surface area of the cell monolayer (0.33 cm^2). The Papp value is a rate measured in cm/s.
(§8) Comparing the efflux ratios generated in the presence and absence of a Pgp inhibitor identifies whether the test article is a Pgp substrate.
(§9) Recovery is calculated as follows: % Recovery=(Total compound mass in donor and receiver compartments at the end of the incubation/Initial compound mass in the donor compartment)×100.
Background: Passage across Caco-2 layers is used to estimate intestinal permeability.

Another data set deals with Caco-2 cells. As to the kind of experiment: Caco-2 permeability assay. Type of data set: in vitro ADME, human. Conditions: Caco-2 monolayer, donor 10 μM, 90 minutes, 37° C., pH 7.4; for Papp A-B: apical to basolateral; for Papp B-A: basolateral to apical. The procedure: as §1, §2, §3, §4, §5, §6, §7, §8, §9

The Papp A→B is the apparent permeability from the apical to the basolateral side of a cell layer. A lower Papp A→B goes with slow passage. `Cc1cc(C[C@@H](NC(=O)N2CCC(c3cc4ccccc4[nH]c3=O)CC2)C(=O)N2CCN(C3CCN(C)CC3)CC2)cc2cn[nH]c12` [BHV-3500, N-[(2R)-3-(7-methyl-1H-indazol-5-yl)-1-[4-(1-methylpiperidin-4-yl)piperazin-1-yl]-1-oxopropan-2-yl]-4-(2-oxo-1,2-dihydroquinolin-3-yl)piperidine-1-carboxamide, reference compound] came in with a Papp A→B at 90 min, 10 μM in data set [1] of less than 0.05 ×10⁻⁶ cm/s.

As a reminder, the Papp B→A is how fast a substance crosses the layer from the basolateral side. In data set [1], `Cc1cc(C[C@@H](NC(=O)N2CCC(c3cc4ccccc4n(COC(=O)C(C)(C)C)c3=O)CC2)C(=O)N2CCN(C3CCN(C)CC3)CC2)cc2cn(COC(=O)C(C)(C)C)nc12` [Example 4, {5-[(2R)-2-{[4-(1-{[(2,2-dimethylpropanoyl)oxy]methyl}-2-oxo-1,2-dihydroquinolin-3-yl)piperidine-1-carbonyl]amino}-3-[4-(1-methylpiperidin-4-yl)piperazin-1-yl]-3-oxopropyl]-7-methyl-2H-indazol-2-yl}methyl 2,2-dimethylpropanoate trifluoroacetate] yielded an apparent permeability from apical to basolateral (Papp A→B) at 90 min, 10 μM of 5.1 ×10⁻⁶ cm/s and a Papp B→A at 90 min, 10 μM of 2.9 ×10⁻⁶ cm/s. For the compound `Cc1cc2cc3cn(nc13)COC(=O)C(C)(C)C/C=C\CC(C)(C)C(=O)OCn1c(=O)c(cc3ccccc31)C1CCN(CC1)C(=O)N[C@@H](C(=O)N1CCN(C3CCN(C)CC3)CC1)C2` [Example 10, (16Z,31R)-14,14,19,19,27-pentamethyl-31-[4-(1-methylpiperidin-4-yl)piperazine-1-carbonyl]-12,21-dioxa-10,23,32,34,40-pentaazahexacyclo[32.2.2.1^2,10.1^23,26.1^25,29.0^4,9]hentetraconta-2,4(9),5,7,16,24,26(40),27,29(39)-nonaene-13,20,33,41-tetrone], in data set [1], the Papp A→B at 90 min, 10 μM is 0.31 ×10⁻⁶ cm/s and the Papp B→A at 90 min, 10 μM stood at 28.9 ×10⁻⁶ cm/s.

In data set [1], `Cc1cc2cc3cn(nc13)COC(=O)C1(C/C=C\CC3(CC3)C(=O)OCn3c(=O)c(cc4ccccc43)C3CCN(CC3)C(=O)N[C@@H](C(=O)N3CCN(C4CCN(C)CC4)CC3)C2)CC1` [Example 13, (16′Z,31′S)-27′-methyl-31′-[4-(1-methylpiperidin-4-yl)piperazine-1-carbonyl]dispiro[cyclopropane-1,14′-[12,21]dioxa-[10,23,32,34,40]pentaazahexacyclo[32.2.2.1^2,10.1^23,26.1^25,29.0^4,9]hentetracontane-19′,1″-cyclopropane]-2′,4′(9′),5′,7′,16′,24′,26′(40′),27′,29′(39′)-nonaene-13′,20′,33′,41′-tetrone trifluoroacetate] had a Papp A→B at 90 min, 10 μM of 0.839 ×10⁻⁶ cm/s and a Papp B→A at 90 min, 10 μM of 20 ×10⁻⁶ cm/s. In data set [1], `CCCCCCN(C)C(=O)OCn1cc2cc(C[C@@H](NC(=O)N3CCC(c4cc5ccccc5n(COC(=O)N(C)CCCCCC)c4=O)CC3)C(=O)N3CCN(C4CCN(C)CC4)CC3)cc(C)c2n1` [Example 93, {5-[(2R)-2-({4-[1-({[hexyl(methyl)carbamoyl]oxy}methyl)-2-oxo-1,2-dihydroquinolin-3-yl]piperidine-1-carbonyl}amino)-3-[4-(1-methylpiperidin-4-yl)piperazin-1-yl]-3-oxopropyl]-7-methyl-2H-indazol-2-yl}methyl N-hexyl-N-methylcarbamate] returned a Papp A→B at 90 min, 10 μM of 1.13 ×10⁻⁶ cm/s and a Papp B→A at 90 min, 10 μM of 10.7 ×10⁻⁶ cm/s. In data set [1], `Cc1cc2cc3cn(nc13)COC(=O)C(C)(C)CCCCC(C)(C)C(=O)OCn1c(=O)c(cc3ccccc31)C1CCN(CC1)C(=O)N[C@@H](C(=O)N1CCN(C3CCN(C)CC3)CC1)C2` [Example 125, (31R)-14,14,19,19,27-pentamethyl-31-[4-(1-methylpiperidin-4-yl)piperazine-1-carbonyl]-12,21-dioxa-10,23,32,34,40-pentaazahexacyclo[32.2.2.1^2,10.1^23,26.1^25,29.0^4,9]hentetraconta-2,4,6,8,24,26(40),27,29(39)-octaene-13,20,33,41-tetrone] had a Papp A→B at 90 min, 10 μM of 2.2 ×10⁻⁶ cm/s and a Papp B→A at 90 min, 10 μM of 13.9 ×10⁻⁶ cm/s. As to “(R)-(3-(1-(3-(7-methyl-2-(octanoyloxymethyl)-2H-indazol-5-yl)-1-(4-(1-methylpiperidin-4-yl)piperazin-1-yl)-1-oxopropan-2-ylcarbamoyl)piperidin-4-yl)-2-oxoquinolin-1(2H)-yl)methyl octanoate compound with (R)-heptyl 7-methyl-5-(3-(4-(1-methylpiperidin-4-yl)piperazin-1-yl)-2-(4-(1-(octanoyloxymethyl)-2-oxo-1,2-dihydroquinolin-3-yl)piperidine-1-carboxamido)-3-oxopropyl)-1H-indazole-1-carboxylate (1:1) [Example 59]”, in the data set with Caco-2 cells, the “Papp A-B” value was found to be 22 nm/s and the “Papp B-A” value was found to be 76 nm/s. The corresponding values for “(R)-(7-methyl-5-(3-(4-(1-methylpiperidin-4-yl)piperazin-1-yl)-3-oxo-2-(4-(2-oxo-1,2-dihydroquinolin-3-yl)piperidine-1-carboxamido)propyl)-1H-indazol-1-yl)methyl heptanoate compound with (R)-(7-methyl-5-(3-(4-(1-methylpiperidin-4-yl)piperazin-1-yl)-3-oxo-2-(4-(2-oxo-1,2-dihydroquinolin-3-yl)piperidine-1-carboxamido)propyl)-2H-indazol-2-yl)methyl heptanoate (1:1) [Example 61]” are 25 nm/s and 19.6 nm/s.
